According to ChEMBL document CHEMBL3044966, “Photosynthesis limitations of grapevine after treatment with the fungicide fludioxonil” (J Agric Food Chem, 2008):

Assays:
[1] = test system: Vitis vinifera; test: Inhibition of photosynthesis in Vitis vinifera cv. Pinot noir assessed as intercellular CO2 concentration-saturated net CO2 assimilation rate at 6 mM measured 7 days post compound application (reference value: 11.3 +/- 0.8 umol/m2/s); assay type: organism-based; conditions: in vivo, 168 h, 6000 µM
[2] = test system: Vitis vinifera; test: Effect on stomatal conductance in Vitis vinifera cv. Pinot noir at 1.2 to 30 mM measured 1 day post compound application; assay type: ADME, organism-based; conditions: in vivo, 24 h, 30000 µM
[3] = test system: Vitis vinifera; test: Inhibition of photosynthesis in Vitis vinifera cv. Pinot noir assessed as reduction in net photosynthetic rate at 30 mM measured 1 day post compound application; assay type: organism-based; conditions: in vivo, 24 h, 30000 µM
[4] = Inhibition of photosynthesis in Vitis vinifera cv. Pinot noir assessed as reduction in dark respiration at 1.2 mM measured 7 days post compound application; assay type: organism-based; conditions: in vivo
[5] = test system: Vitis vinifera; test: Inhibition of photosynthesis in Vitis vinifera cv. Pinot noir assessed as mitochondrial respiration in the light at 30 mM measured 7 days post compound application (reference value: 3.2 +/- 0.5 umol/m2/s); assay type: organism-based; conditions: in vivo, 168 h, 30000 µM
[6] = test system: Vitis vinifera; test: Inhibition of photosynthesis in Vitis vinifera cv. Pinot noir assessed as apparent quantum yield of CO2 fixation at 1.2 mM measured 7 days post compound application (reference value: 0.07 +/- 0.01 no unit) umol/m2/s); assay type: organism-based; conditions: in vivo, 168 h, 1200 µM
[7] = test system: Vitis vinifera; test: Effect on photochemical quenching in Vitis vinifera cv. Pinot noir at 1.2 to 30 mM measured 7 days post compound application; assay type: ADME, organism-based; conditions: in vivo, 168 h, 30000 µM
[8] = test system: Vitis vinifera; test: Inhibition of photosynthesis in Vitis vinifera cv. Pinot noir assessed as ratio of apparent quantum yield of photo system 2 to apparent quantum yield yield of CO2 fixation at 30 mM measured 7 days post compound application (reference value: 10 +/- 1.7 no unit); assay type: organism-based; conditions: in vivo, 168 h, 30000 µM
[9] = test system: Vitis vinifera; test: Increase in […] CO2 level in Vitis vinifera cv. Pinot noir at 30 mM measured 7 days post compound application; assay type: ADME, organism-based; conditions: in vivo, 168 h, 30000 µM
[10] = Inhibition of photosynthesis in Vitis vinifera cv. Pinot noir assessed as change in light compensation point at 6 mM measured 7 days post compound application; assay type: organism-based; conditions: in vivo
[11] = test system: Vitis vinifera; test: Effect on net photosynthetic rate in Vitis vinifera cv. Pinot noir at 1.2 to 30 mM measured 2 to 4 days post compound application; assay type: ADME, organism-based; conditions: in vivo, 30000 µM
[12] = test system: Vitis vinifera; test: Increase in […] CO2 level in Vitis vinifera cv. Pinot noir at 1.2 mM measured 7 days post compound application; assay type: ADME, organism-based; conditions: in vivo, 168 h, 1200 µM
[13] = test system: Vitis vinifera; test: Increase in […] CO2 level in Vitis vinifera cv. Pinot noir at 6 mM measured 7 days post compound application; assay type: ADME, organism-based; conditions: in vivo, 168 h, 6000 µM
[14] = test system: photosystem 2; test: Inhibition of photosynthesis in Vitis vinifera cv. Pinot noir assessed as reduction in relative quantum yield of photo system 2 at 30 mM measured 7 days post compound application relative to untreated control; assay type: organism-based; conditions: in vivo
[15] = test system: Vitis vinifera; test: Inhibition of photosynthesis in Vitis vinifera cv. Pinot noir assessed as PPFD-saturated net CO2 assimilation rate at 1.2 mM measured 7 days post compound application (reference value: 8.9 +/- 1.5 umol/m2/s); assay type: organism-based; conditions: in vivo, 168 h, 1200 µM
[16] = test system: Vitis vinifera; test: Inhibition of photosynthesis in Vitis vinifera cv. Pinot noir assessed as light compensation point at 6 mM measured 7 days post compound application (reference value: 22.6 +/- 3.1 umol/mol); assay type: organism-based; conditions: in vivo, 168 h, 6000 µM
[17] = test system: Vitis vinifera; test: Inhibition of photosynthesis in Vitis vinifera cv. Pinot noir assessed as CO2 compensation point at 6 mM measured 7 days post compound application (reference value: 74.8 +/- 12.7 umol/mol); assay type: organism-based; conditions: in vivo, 168 h, 6000 µM
[18] = test system: Vitis vinifera; test: Inhibition of photosynthesis in Vitis vinifera cv. Pinot noir assessed as light compensation point at 1.2 mM measured 7 days post compound application (reference value: 22.6 +/- 3.1 umol/mol); assay type: organism-based; conditions: in vivo, 168 h, 1200 µM
[19] = Inhibition of photosynthesis in Vitis vinifera cv. Pinot noir assessed as reduction in net photosynthetic rate at 6 mM measured 7 days post compound application; assay type: organism-based; conditions: in vivo
[20] = test system: Vitis vinifera; test: Inhibition of photosynthesis in Vitis vinifera cv. Pinot noir assessed as dark respiration at 1.2 mM measured 7 days post compound application (reference value: 1.6 +/- 0.0 umol/m2/s); assay type: organism-based; conditions: in vivo, 168 h, 1200 µM
[21] = test system: Vitis vinifera; test: Inhibition of photosynthesis in Vitis vinifera cv. Pinot noir assessed as intercellular CO2 concentration-saturated net CO2 assimilation rate at 30 mM measured 7 days post compound application (reference value: 11.3 +/- 0.8 umol/m2/s); assay type: organism-based; conditions: in vivo, 168 h, 30000 µM
[22] = test system: Vitis vinifera; test: Effect on stomatal conductance in Vitis vinifera cv. Pinot noir at 1.2 to 30 mM measured 7 days post compound application; assay type: ADME, organism-based; conditions: in vivo, 168 h, 30000 µM
[23] = test system: Vitis vinifera; test: Inhibition of photosynthesis in Vitis vinifera cv. Pinot noir assessed as apparent quantum yield of CO2 fixation at 30 mM measured 7 days post compound application (reference value: 0.07 +/- 0.01 no unit) umol/m2/s); assay type: organism-based; conditions: in vivo, 168 h, 30000 µM
[24] = test system: Vitis vinifera; test: Inhibition of photosynthesis in Vitis vinifera cv. Pinot noir assessed as CO2 compensation point at 30 mM measured 7 days post compound application (reference value: 74.8 +/- 12.7 umol/mol); assay type: organism-based; conditions: in vivo, 168 h, 30000 µM
[25] = test system: Vitis vinifera; test: Effect on maximum efficiency of PSII photochemistry after dark-adaptation in Vitis vinifera cv. Pinot noir at 1.2 to 30 mM measured 7 days post compound application; assay type: ADME, organism-based; conditions: in vivo, 168 h, 30000 µM
[26] = test system: Vitis vinifera; test: Inhibition of photosynthesis in Vitis vinifera cv. Pinot noir assessed as dark respiration at 30 mM measured 7 days post compound application (reference value: 1.6 +/- 0.0 umol/m2/s); assay type: organism-based; conditions: in vivo, 168 h, 30000 µM
[27] = test system: Vitis vinifera; test: Inhibition of photosynthesis in Vitis vinifera cv. Pinot noir assessed as mitochondrial respiration in the light at 1.2 mM measured 7 days post compound application (reference value: 3.2 +/- 0.5 umol/m2/s); assay type: organism-based; conditions: in vivo, 168 h, 1200 µM

N#Cc1c[nH]cc1-c1cccc2c1OC(F)(F)O2 [FLUDIOXONIL]
Activity [1]: 11.5 micromol/m2/s
Activity [2]: Non-toxic
Activity [3]: Toxic
inhibition at 168 h, 1200 µM [4]: 30%
Activity [5]: 12.6 micromol/m2/s
Activity [6]: 0.01
Activity [7]: Non-toxic
Ratio [8]: 19.2
Activity [9]: 20%
inhibition at 168 h, 6000 µM [10]: 20%
Activity [11]: Non-toxic
Activity [12]: 13%
Activity [13]: 20%
inhibition at 168 h, 30000 µM [14]: 10%
Activity [15]: 7.7 micromol/m2/s
Activity [16]: 27.7 umol/mol
Activity [17]: 82.2 umol/mol
Activity [18]: 19.8 umol/mol
inhibition at 168 h, 6000 µM [19]: 65%
Activity [20]: 0.8 micromol/m2/s
Activity [21]: 12.2 micromol/m2/s
Activity [22]: Non-toxic
Activity [23]: 0.04
Activity [24]: 267 umol/mol
Activity [25]: Non-toxic
Activity [26]: 1.4 micromol/m2/s
Activity [27]: 3.2 micromol/m2/s
